Data as given in paper PMC9270327 (Communications Biology, 2022).
Where a SMILES comes first, the peptide text is derived from it. The star is where a group is joined. AMC = Cc1cc(=O)oc2cc(N*)ccc12; Boc = CC(C)(C)OC(=O)*

Experiments:
[1] = biological target: TMPRSS2 (Homo sapiens, UniProt O15393); test: Michaelis-Menten constant of the fluorogenic reference substrate; details: read-out: Michaelis-Menten constant KM for TMPRSS2
Description: The measurements were performed on a Tecan infinite® M1000 and the fluorescence intensity was measured by exciting the AMC fluorophore at 380 nm wavelength and recording emission at 460 nm wavelength. […] Fluorescence intensities and absorption were measured every 2 min for 2 h or as endpoint after 2 h.
Supplementary Figure 2 Michaelis-Menten constant (KM) of the fluorogenic reference substrate
The data points were plotted using the Michaelis -Menten
equation in GraphPad Prism prism version 8.4.2 (San Diego, California). Shown are the means ± SD of
n=1 experiment performed in triplicates.

[2] = biological target: T1, recombinant human matriptase (Homo sapiens, UniProt Q9Y5Y6); test: Enzyme inhibition assay with purified matriptase (Ki, dose-response); type: biochemical; details: for matriptase activity, Mean (Fig. 2b): normalized, 0 nM = 100
T1 construct: purchased R&D Systems (Minneapolis, MN, USA)
T1 sequence (Q9Y5Y6 1-855): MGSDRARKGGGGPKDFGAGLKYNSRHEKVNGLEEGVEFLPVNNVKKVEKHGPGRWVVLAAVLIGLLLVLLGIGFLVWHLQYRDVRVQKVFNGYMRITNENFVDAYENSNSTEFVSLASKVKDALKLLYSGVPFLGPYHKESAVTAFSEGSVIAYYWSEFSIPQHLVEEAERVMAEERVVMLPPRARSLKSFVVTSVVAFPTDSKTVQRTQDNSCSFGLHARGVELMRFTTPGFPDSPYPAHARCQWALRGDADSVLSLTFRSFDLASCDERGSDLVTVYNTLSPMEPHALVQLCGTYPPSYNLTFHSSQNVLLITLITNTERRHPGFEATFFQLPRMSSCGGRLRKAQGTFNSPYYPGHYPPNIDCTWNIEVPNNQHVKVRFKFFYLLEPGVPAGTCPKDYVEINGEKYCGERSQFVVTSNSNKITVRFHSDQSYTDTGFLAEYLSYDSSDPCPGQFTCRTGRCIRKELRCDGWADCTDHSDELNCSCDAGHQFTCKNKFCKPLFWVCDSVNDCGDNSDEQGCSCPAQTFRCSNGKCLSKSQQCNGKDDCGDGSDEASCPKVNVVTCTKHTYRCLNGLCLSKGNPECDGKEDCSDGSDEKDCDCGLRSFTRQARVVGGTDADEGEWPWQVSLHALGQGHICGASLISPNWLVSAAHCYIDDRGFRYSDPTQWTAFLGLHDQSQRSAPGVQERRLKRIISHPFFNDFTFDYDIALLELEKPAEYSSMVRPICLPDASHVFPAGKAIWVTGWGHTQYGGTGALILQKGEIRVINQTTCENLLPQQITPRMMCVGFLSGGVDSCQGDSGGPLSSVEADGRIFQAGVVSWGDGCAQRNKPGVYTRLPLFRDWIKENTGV

[3] = biological target: T2, recombinant human thrombin (Homo sapiens, UniProt P00734); test: Enzyme inhibition assay with purified thrombin (Ki, dose-response); type: biochemical; details: for thrombin activity, Mean (Fig. 2c): normalized
T2 construct: purchased R&D Systems (Minneapolis, MN, USA)
Description: (§1) Recombinant human TMPRSS2 was purchased from Creative BioMart (New York, USA) or LSBio (Seattle, USA), factor Xa was obtained from Bio-Techne GmbH (Wiesbaden, Germany). Recombinant human thrombin and matriptase protein were purchased from R&D Systems (Minneapolis, MN, USA).

[4] = biological target: T3, factor Xa (Homo sapiens, UniProt P00742); test: Enzyme inhibition assay with purified factor Xa (Ki, dose-response); type: biochemical; details: for factor Xa activity, Mean (Fig. 2d): normalized, 0 nM = 100
T3 construct: purchased Bio-Techne GmbH (Wiesbaden, Germany)
Description: as §1

[5] = iv; cited from earlier work
[6] = 30 min preincubation, substrate Boc-Gln-Ala-Arg-AMC
[7] = 30 min preincubation, substrate D-Phe-Homopro-Arg-pNA
[8] = 30 min preincubation, substrate Bz-Ile-Glu-Gly-Arg-pNA

T3 sequence (P00742 235-488 limits assumed): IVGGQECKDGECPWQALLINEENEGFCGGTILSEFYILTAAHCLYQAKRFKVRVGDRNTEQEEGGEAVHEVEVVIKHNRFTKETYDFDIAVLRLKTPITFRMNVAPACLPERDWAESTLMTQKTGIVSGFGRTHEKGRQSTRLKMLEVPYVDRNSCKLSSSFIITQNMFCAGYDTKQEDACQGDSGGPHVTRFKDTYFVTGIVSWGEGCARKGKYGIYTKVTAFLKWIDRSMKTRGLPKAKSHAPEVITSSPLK
T3 sequence (P00742 41-179 partner limits assumed): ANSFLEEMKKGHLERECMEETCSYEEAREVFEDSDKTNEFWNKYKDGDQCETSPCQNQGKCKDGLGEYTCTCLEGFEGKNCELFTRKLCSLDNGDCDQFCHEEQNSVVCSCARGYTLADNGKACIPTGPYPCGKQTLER
Sequence of TMPRSS2 (O15393 whole entry): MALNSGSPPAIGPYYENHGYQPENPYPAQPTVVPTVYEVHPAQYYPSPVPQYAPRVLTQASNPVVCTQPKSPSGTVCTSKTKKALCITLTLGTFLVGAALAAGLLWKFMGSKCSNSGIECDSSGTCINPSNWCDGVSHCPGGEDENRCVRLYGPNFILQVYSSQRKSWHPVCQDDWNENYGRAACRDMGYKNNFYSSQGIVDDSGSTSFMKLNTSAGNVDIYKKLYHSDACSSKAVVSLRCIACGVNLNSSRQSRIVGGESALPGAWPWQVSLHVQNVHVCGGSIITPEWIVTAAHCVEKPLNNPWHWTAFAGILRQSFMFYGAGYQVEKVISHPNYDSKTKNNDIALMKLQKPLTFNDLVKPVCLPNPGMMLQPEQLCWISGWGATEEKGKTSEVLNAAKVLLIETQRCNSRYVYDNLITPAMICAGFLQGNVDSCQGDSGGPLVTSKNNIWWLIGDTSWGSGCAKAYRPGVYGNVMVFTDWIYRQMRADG

Cc1cc(=O)oc2cc(NC(=O)[C@H](CCCN=C(N)N)NC(=O)[C@H](C)NC(=O)[C@H](CCC(N)=O)NC(=O)OC(C)(C)C)ccc12 [Boc-Gln-Ala-Arg-AMC] (Boc-Gln-Ala-Arg-{AMC})
Km [1]: 77 µM

CC(=O)N[C@H](CCCNC(=N)N)C(=O)N[C@@H](CC1CCC1)C(=O)N[C@H](CO)CCCNC(=N)N [Cpd. 7 alcohol]
Ki Matriptase [2, 6]: n.i.
matriptase activity, Mean (control = 100), S6a ([2]; inhibitor 10 nM): 90.4903
matriptase activity, Mean (control = 100), S6a ([2]; inhibitor 100 nM): 101.634
matriptase activity, Mean (control = 100), S6a ([2]; inhibitor 1000 nM): 101.337
matriptase activity, Mean (control = 100), S6a ([2]; inhibitor 50000 nM): 91.3819
matriptase activity, Mean (control = 100), S6a ([2]; inhibitor 500000 nM): 44.4279
Ki Thrombin [3, 7]: n.i.
thrombin activity, Mean (control = 100), S6b ([3]; inhibitor 0.2 nM): 90.7019
thrombin activity, Mean (control = 100), S6b ([3]; inhibitor 2 nM): 92.977
thrombin activity, Mean (control = 100), S6b ([3]; inhibitor 20 nM): 91.1965
thrombin activity, Mean (control = 100), S6b ([3]; inhibitor 200 nM): 95.4993
thrombin activity, Mean (control = 100), S6b ([3]; inhibitor 10000 nM): 93.8672
thrombin activity, Mean (control = 100), S6b ([3]; inhibitor 100000 nM): 91.2954
Ki Factor Xa [4, 8]: n.i.
factor Xa activity, Mean (control = 100), S6c ([4]; inhibitor 0.2 nM): 93.6065
factor Xa activity, Mean (control = 100), S6c ([4]; inhibitor 2 nM): 101.454
factor Xa activity, Mean (control = 100), S6c ([4]; inhibitor 20 nM): 95.9299
factor Xa activity, Mean (control = 100), S6c ([4]; inhibitor 200 nM): 88.9574
factor Xa activity, Mean (control = 100), S6c ([4]; inhibitor 10000 nM): 78.1999
factor Xa activity, Mean (control = 100), S6c ([4]; inhibitor 100000 nM): 120.06

CC(=O)NC(CCCNC(=N)N)C(=O)NC(CC1CCC1)C(=O)NC(CCCNC(=N)N)C(=O)c1nccs1 (stereo not shown) [Cpd. 7 ketothiazole]
Ki [2, 6]: 141 nM
matriptase activity, Mean (control = 100), S6a ([2]; inhibitor 0.1 nM): 103.606
matriptase activity, Mean (control = 100), S6a ([2]; inhibitor 0.2 nM): 101.185
matriptase activity, Mean (control = 100), S6a ([2]; inhibitor 1 nM): 109.016
matriptase activity, Mean (control = 100), S6a ([2]; inhibitor 10 nM): 101.829
matriptase activity, Mean (control = 100), S6a ([2]; inhibitor 100 nM): 75.1932
matriptase activity, Mean (control = 100), S6a ([2]; inhibitor 1000 nM): 21.355
matriptase activity, Mean (control = 100), S6a ([2]; inhibitor 50000 nM): 0.4637
matriptase activity, Mean (control = 100), S6a ([2]; inhibitor 500000 nM): -0.1803
Ki Thrombin [3, 7]: n.i.
thrombin activity, Mean (control = 100), S6b ([3]; inhibitor 0.02 nM): 96.7111
thrombin activity, Mean (control = 100), S6b ([3]; inhibitor 0.04 nM): 101.49
thrombin activity, Mean (control = 100), S6b ([3]; inhibitor 0.2 nM): 101.233
thrombin activity, Mean (control = 100), S6b ([3]; inhibitor 2 nM): 107.554
thrombin activity, Mean (control = 100), S6b ([3]; inhibitor 20 nM): 101.388
thrombin activity, Mean (control = 100), S6b ([3]; inhibitor 200 nM): 101.233
thrombin activity, Mean (control = 100), S6b ([3]; inhibitor 10000 nM): 98.2014
thrombin activity, Mean (control = 100), S6b ([3]; inhibitor 100000 nM): 83.6589
Ki [4, 8]: 98.7 nM
factor Xa activity, Mean (control = 100), S6c ([4]; inhibitor 0.02 nM): 95.3485
factor Xa activity, Mean (control = 100), S6c ([4]; inhibitor 0.04 nM): 90.4387
factor Xa activity, Mean (control = 100), S6c ([4]; inhibitor 0.2 nM): 87.8566
factor Xa activity, Mean (control = 100), S6c ([4]; inhibitor 2 nM): 87.8545
factor Xa activity, Mean (control = 100), S6c ([4]; inhibitor 20 nM): 82.4299
factor Xa activity, Mean (control = 100), S6c ([4]; inhibitor 200 nM): 52.1976
factor Xa activity, Mean (control = 100), S6c ([4]; inhibitor 10000 nM): 2.584
factor Xa activity, Mean (control = 100), S6c ([4]; inhibitor 100000 nM): 3.101

NC(N)=Nc1ccc(C(=O)Oc2ccc(CC(=O)O)cc2)cc1 [FOY-251, reference compound]
matriptase activity, Mean (Fig. 2b) ([2]; 0.05 nM): 110.25
matriptase activity, Mean (Fig. 2b) ([2]; 0.5 nM): 111.62
matriptase activity, Mean (Fig. 2b) ([2]; 5 nM): 106.849
matriptase activity, Mean (Fig. 2b) ([2]; 50 nM): 97.213
matriptase activity, Mean (Fig. 2b) ([2]; 500 nM): 35.5692
matriptase activity, Mean (Fig. 2b) ([2]; 5000 nM): 1.606
matriptase activity, Mean (Fig. 2b) ([2]; 50000 nM): 0.2362
matriptase activity, Mean (Fig. 2b) ([2]; 500000 nM): 0.1417
Ki [2, 6]: 173 nM
thrombin activity, Mean (Fig. 2c) ([3]; 0.01 nM): 101.844
thrombin activity, Mean (Fig. 2c) ([3]; 0.02 nM, 0 nM = 100): 101.898
thrombin activity, Mean (Fig. 2c) ([3]; 0.04 nM, 0 nM = 100): 101.898
thrombin activity, Mean (Fig. 2c) ([3]; 0.2 nM, 0 nM = 100): 101.356
thrombin activity, Mean (Fig. 2c) ([3]; 2 nM, 0 nM = 100): 99.0781
thrombin activity, Mean (Fig. 2c) ([3]; 20 nM, 0 nM = 100): 102.277
thrombin activity, Mean (Fig. 2c) ([3]; 10000 nM, 0 nM = 100): 93.0588
thrombin activity, Mean (Fig. 2c) ([3]; 100000 nM, 0 nM = 100): 44.1974
Ki [3, 7]: > 50000 nM
factor Xa activity, Mean (Fig. 2d) ([4]; 0.02 nM): 91.2533
factor Xa activity, Mean (Fig. 2d) ([4]; 0.04 nM): 91.3991
factor Xa activity, Mean (Fig. 2d) ([4]; 0.2 nM): 72.8853
factor Xa activity, Mean (Fig. 2d) ([4]; 2 nM): 86.5885
factor Xa activity, Mean (Fig. 2d) ([4]; 20 nM): 82.2151
factor Xa activity, Mean (Fig. 2d) ([4]; 200 nM): 72.5938
factor Xa activity, Mean (Fig. 2d) ([4]; 10000 nM): 34.986
factor Xa activity, Mean (Fig. 2d) ([4]; 100000 nM): 16.3265
Ki [4, 8]: 697 nM
in vivo half-life [5]: 1 to 1.67 h
